Source: patent publication US20230089949A1, “SMALL MOLECULES FOR TREATING AGE-RELATED RETINAL DISEASES” (University of Pittsburgh - Of the Commonwealth System of …, priority 2020, published 2023)

Columns and labels:
aged F344 rat retinae [1] = test: Retinal morphology (H&E, rhodopsin immunofluorescence) in F344 rat model of age-related photoreceptor degeneration (Example 2); assay type: in vivo
Description: To test the efficacy of 8-AG in photoreceptor degeneration, 8-AG was administered in two animal models including the F344 rat of age-related photoreceptor degeneration, and the Rho^P23H/+ knock-in mice of retinitis pigmentosa and examine the retinal morphology and function.
(§1) For treatment, female F344 rats were orally administered with 5 mg per kg body weight (bw) of 8-aminoguanine (8-AG) per day in the drinking water starting at 22-24 months of age for 8 weeks. Non-treated age-matched F344 rats and young adult F344 rats at 3-4 months of age were used as controls. RhoP^23H/+ mice were administered with 8-AG for 11 mg per kg bw per day by intraperitoneal injections starting from postnatal day (PND) 15 for five weeks. PBS treated Rho^P23H/+ and WT mice were used as controls.
Eyes were enucleated by a surgical scissor cutting around the eyeball. Each eye was opened with a cut at the cornea side of the limbus, cut horizontally at the edge of the cornea for a circle, corneas removed and lens isolated. Eyecups were incubated in freshly prepared 4% paraformaldehyde for 2 hr. Fixed eyecups were dehydrated sequentially in 5, 10, 20 and 40% sucrose solutions in phosphate buffered saline (PBS) for 30 min each at room temperature. Finally, eyecups were incubated in a mixture of 40% sucrose in PBS and O.C.T. compound (FisherScientific, Houston, Tex. USA) at 3:7 volume ratio overnight at 4° C. before they are embedded in the same mixed solution in an orientation-specific manner and frozen in liquid nitrogen-bathed isobutene. A microtome made twelve-micron retinal cross-sections at −18° C. and those containing the optic nerve head were applied onto a SUPERFROST™ glass slide (FisherScientific, Houston, Tex. USA). These slides were then used for IHC.
After rehydration and permeabilization in PBST for 15 min, retinal sections were incubated in 5% goat serum for 30 min, and then they were incubated with 5% goat serum containing the primary antibodies. […]

Dahl salt-sensitive rats [2] = settings: high salt diet with 8AG for 40 days; vs untreated high-salt control; cited from earlier work
aged F344 rat retinae [3] = test: Immunofluorescence of GFAP and CD68 in aged F344 rat retinae; assay type: in vivo; settings: 5 mg/kg bw per day in drinking water for eight weeks from 22 months of age
Description: Glial cells are activated upon photoreceptor degeneration, and retinal immune response is thought to contribute to photoreceptor degeneration as the disease progresses. Activated macrophages were reported to not only scavenge dead cells, but also can phagocytose living photoreceptors (McMenamin et al. Prog. Retin. Eye Res. 70, 85-98, doi:10.1016/j.preteyeres. 2018.12.002 (2019)).
as §1
Eyes were enucleated by a surgical scissor cutting around the eyeball. Each eye was opened with a cut at the cornea side of the limbus, cut horizontally at the edge of the cornea for a circle, corneas removed and lens isolated. Eyecups were incubated in freshly prepared 4% paraformaldehyde for 2 hr. Fixed eyecups were dehydrated sequentially in 5, 10, 20 and 40% sucrose solutions in phosphate buffered saline (PBS) for 30 min each at room temperature. […]

Aged Fischer 344 rats = test: Histological analysis of retinal outer nuclear layer (ONL) in aged Fischer 344 rats (Example 1); assay type: in vivo, rat
Description: Aged Fischer 344 rats were treated with oral 8-AG (5 mg/kg/day for 6 weeks; drug delivered via the drinking water), or were a control, and the eyes of the rats were harvested for histological analysis of the retinal outer nuclear layer (ONL) and the results were compared with a corresponding histological analysis of young Fischer 344 rats (FIG. 8). With advance age, there is likely to be a loss of photoreceptors with associated thinning and eventual loss of the overlying ONL (see Schuman et al., Ophthalmology, 116:488-96.e2, 2009)
The orientation of each eye was randomly embedded and sectioned. The fixed eyes were placed in a histology processing cassette for serial alcohol based dehydration. Dehydrated eyes were embedded in paraffin, and retinal cross sections were cut at 6 μm thickness. Retinal cross sections near the optic nerve were stained by hematoxylin and eosin (H&E). Images of H&E-stained retinal cross sections were collected under 4× and 20× objectives. […]
In each retinal cross section image under the 20× objective, the outer nuclear layer (ONL) thickness was measured at 6 locations along the image to calculate the average ONL thickness. […]

Rho^P23H/+ knock-in mice = test: Retinal morphology and scotopic ERG in Rho P23H/+ knock-in mice of retinitis pigmentosa; assay type: in vivo, mouse; settings: 11 mg per kg bw per day i.p. for five weeks from PND 15
Description: as §1
(§2) Electroretinogram (ERG): ERG was performed using the Celeris system (Diagnosys, Lowell, Mass., USA). Rats were placed in the dark overnight. During the ERG test, protect the rats from the light from the beginning to the finish of the scotopic test, only use the dim light to do the preparation in the dark room. Pupils were dilated with 1% tropicamide (Akorn, Lake Forest, Ill., USA) and 2.5% phenylephrine (Sigma). Rats were anesthetized with an intraperitoneal injection of ketamine at 80 mg/kg bw and xylazine at 7 mg/kg bw. Eyes were lubricated by a 0.3% hypromellose eye gel (Alcon, Fort Worth, Tex., USA). A heating pad was used to maintain body temperature at 37° C. Scotopic ERG responses of dark-adapted eyes to ten flashes from 0.0001 cd·s/m^2 to 100 cd·s/m^2 were recorded and averaged from three sweeps per flash intensity with inter-sweep intervals of 10 to 30 s. After exposed to 10 cd/m^2 illumination for 10 min, the photopic ERG responses were recorded from the light-adapted eyes in response to flashes from 0.01 cd·s/m^2 to 100 cd·s/m^2 in addition to a 10 cd/m^2 background light. P-values were calculated by a two-way ANOVA to determine the statistical significance between the response amplitudes in the 8-AG treated group and untreated group. Factor 1, treatment condition; and factor 2, flash intensity.
Retinal histology and H&E staining: To examine the structure of the aging rats' retinas treated with 8-AG, the rats were euthanized, their eyes removed, and fixed in 4% paraformaldehyde and 1% glutaraldehyde before paraffin sectioning. […]

aged F344 rat retinae [4] = test: Electroretinogram (ERG) of aged F344 rats, 0 vs 4 wks; assay type: in vivo; settings: 5 mg/kg bw per day in drinking water; 4 wks vs 0 wk
Description: (§3) The potent efficacy of 8-AG in preserving retinal morphology and function of the aged F344 rats and Rho^P23H/+ mice were shown in FIGS. 11A-11D and […].
as §2

aged F344 rat retinae [5] = test: SD-OCT of ONL thickness in aged F344 rats, 0 vs 4 wks; assay type: in vivo
Description: as §3
Optical coherence tomography (OCT): To assess the 8-AG treatment on old F344 rats, ultrahigh-resolution SD-OCT (Bioptigen, Morrisville, N.C.) was performed for in vivo imaging of rats retinas. Pupils were dilated with 1% tropicamide (Akorn, Lake Forest, Ill., USA) and 2.5% phenylephrine (Sigma). Rats were anesthetized with an intraperitoneal injection of ketamine at 80 mg/kg bw and xylazine at 7 mg/kg bw. Eyes were lubricated by a 0.3% hypromellose eye gel (Alcon, Fort Worth, Tex., USA). A heating pad was used to maintain body temperature; the A scan/B scan ratio was set at 1200 lines. Five frames of OCT images scanned at 0° were acquired in the B-mode, averaged, and saved as pdf files. To measure changes to photoreceptors in the retinas assess the effect of 8-AG on retinal protection, the thickness of the ONL was measured along with the scanned SD-OCT image at 6 points from the temporal to nasal end of the retina. A graph of ONL thicknesses was plotted to obtain the means and standard error (SE) of the samples.

Dahl salt-sensitive rats [6] = test: Chronic effects of 8-AG in Dahl salt-sensitive rats on high salt diet (MRI, organ histology); assay type: in vivo, rat; settings: high salt diet with 8AG for 40 days; independent veterinary pathology lab
Source text: (§4) While the genetic loss of PNPase activity is toxic and results in a compromised immune system, partial inhibition of PNPase by pharmacological administration is safe. The chronic effects of 8-AG have been examined in Dahl salt-sensitive rats, which is a model of genetic hypertension that is exacerbated by providing a high salt diet. […] Next, organs from these animals were examined histologically by an independent veterinary pathology lab.

aged F344 rat retinae [7] = test: Immunoblots of protein markers of mitochondria function, oxidative stress and apoptosis in aged F344 rat retinae; assay type: in vivo
Description: A range of protein markers of mitochondria function and apoptosis was probed in the retinae of young, aged and 8-AG treated aged F344 rat retinae, as well as the mitochondrial superoxide dismutase 2 (SOD2), an enzyme protecting tissue from damage by ROS, using immunoblots. […] The fact that chronic 8-AG […] retinal levels of SOD2 is consistent with reduced retinal oxidative stress in 8-AG-treated aged rats.
as §1
Western Immunoblotting: The freshly isolated retinae were homogenized using Lysing Matrix D in a FASTPREP-24™ instrument (MP Biomedicals) in HBSS buffer (5 mM KCl, 0.3 mM KH2PO4, 138 mM NaCl, 4 mM NaHCO3, 0.3 mM Na2HPO4, 5.6 mM glucose, and 10 mM HEPES, pH 7.4) containing complete protease inhibitor cocktail (1 tablet/10 ml, Roche) and phosphatase inhibitor cocktail (MilliporeSigma, 1:100). After centrifugation (16200 g, 15 minutes at 4° C.), the membrane protein fraction was prepared by suspending the membrane pellets in lysis buffer containing 0.3M NaCl, 50 mM Tris-HCl (pH 7.6), and 0.5% Triton X-100, as well as the same concentration of protease inhibitors as above. The suspensions were incubated on ice and centrifuged (16200 g, 15 minutes at 4° C.). The protein concentrations of the combined supernatants were determined using the Pierce BCA protein assay (Thermo Fisher Scientific). Two μg of unheated total protein was loaded on a 4%-15% TGX Stain-Free SDS-PAGE gel (Bio-Rad). As a reliable loading control, total protein measurement per sample was determined using Bio-Rad Stain Free SDS-PAGE gel technology. UV-activated protein fluorescence was imaged on a ChemiDoc MP (Bio-Rad). The gel was electrotransferred to polyvinylidene fluoride membrane and immunoblotted with 1D4 anti-rhodopsin antibody (5 μg/mL). After washing in TBS-T, the membranes were incubated with secondary antibody, sheep anti-mouse HRP (Southern Biotech), developed using WESTERNBRIGHT® Quantum (Advansta), and imaged on a ChemiDoc MP (BioRad). The volume (intensity) of each protein species was determined and normalized to total protein using Image Lab software (Bio-Rad).

animals = test: Observed toxicity in the animal experiments that were performed; assay type: in vivo
Source text: as §4

[8] = 5 mg per kg bw per day in drinking water for 8 weeks from 22 months of age, central, equatorial and peripheral sites, vs untreated age-matched group
[9] = 5 mg/kg bw per day in drinking water from 24 months, 4 wks compared to before treatment

Nc1nc2[nH]c(N)nc2c(=O)[nH]1 [8-AG, 8-aminoguanine]
ONL thickness (aged F344 rat retinae [1]; [8]): distinctively increased
OS/IS thickness (aged F344 rat retinae [1]; [8]): distinctively increased
Rhodopsin levels (immunofluorescence) (aged F344 rat retinae [1]; 5 mg per kg bw per day in drinking water for 8 weeks, vs untreated aged retinae): increased
strokes in the cerebral cortex and subcortical areas (MRI) (Dahl salt-sensitive rats [2]): protected from strokes
GFAP staining (aged F344 rat retinae [3]): did not affect
number of CD68+ cells (aged F344 rat retinae [3]): significantly reduced
ONL preservation in retinal edges (Aged Fischer 344 rats; oral 8-AG 5 mg/kg/day for 6 weeks via drinking water, edge of old retinae, retinal edges with preserved ONL): 7 out of 8
ONL thickness, effect of treatment (2-way ANOVA) (Aged Fischer 344 rats; oral 8-AG 5 mg/kg/day for 6 weeks, treated vs untreated old rats, independent of retinal location): significant
ONL layer thickness (Rho^P23H/+ knock-in mice; H&E): thicker
scotopic ERG a-wave response (Rho^P23H/+ knock-in mice; vs vehicle control group): significantly higher
scotopic ERG b-wave response (Rho^P23H/+ knock-in mice; vs vehicle control group): significantly higher
photopic b wave responses (aged F344 rat retinae [4]): did not affect
scotopic a-wave (aged F344 rat retinae [4]): significantly increased
scotopic b-wave (aged F344 rat retinae [4]): significantly increased
ONL thickness, nasal side (SD-OCT) (aged F344 rat retinae [5]; [9]): slight increase
ONL thickness, temporal side (SD-OCT) (aged F344 rat retinae [5]; [9]): no change
ONL at sites where it had disappeared before treatment (SD-OCT) (aged F344 rat retinae [5]; single exemplary retina, 4 wks of treatment): reappeared
microscopic alterations in heart, kidney, liver, aorta, adrenal gland (histology) (Dahl salt-sensitive rats [6]): No treatment-related microscopic alterations
retinal levels of SOD2 (aged F344 rat retinae [7]; chronic oral 8-AG 5 mg/kg for 8 wks, immunoblot, aged rats): decreased
Rhodopsin levels (immunoblot) (aged F344 rat retinae [7]; oral 8-AG 5 mg/kg for 8 wks, aged F344 retina): restored
retinal MFN2 levels (aged F344 rat retinae [7]; oral 8-AG 5 mg/kg for 8 wks, immunoblot): further increased
cleaved CASP3 (aged F344 rat retinae [7]; oral 8-AG 5 mg/kg for 8 wks, immunoblot, aged retinae): reduced
toxicity (animals): no observed toxicity
